In series [1] the target is purified human 20S proteasome (CT-L activity) (Homo sapiens, UniProt P28074). Nature of the series: Proteasomal CT-L activity measurement with Suc-LLVY-AMC. In kind it is biochemical. As to conditions: for pIC50: Suc-LLVY-AMC substrate, 37° C., 30 min. Here is the method: (§1) Proteasomal activity measurement: The fluorogenic substrates Suc-LLVY-AMC, Z-ARR-AMC, and Z-LLE-AMC were used to measure CT-L, T-L and casp-L proteasome activities, respectively. Assays were carried out in black, clear bottom 96 well plates in a 200 μL reaction volume containing 1 nM of purified human 20S proteasome in 50 mM Tris-HCL pH 7.5 and 0.03% SDS containing 50 IM fluorogenic substrate at 37° C. The rate of cleavage of fluorogenic peptide substrates was determined by monitoring the fluorescence of released aminomethylcoumarin using a SpectraMax M5e multiwall plate reader at an excitation wavelength of 380 nm and emission wavelength of 460 nm. Fluo-rescence was measured every minute over a period of 30 minutes and the maximum increase in fluorescence per minute was used to calculate specific activities of each sample.
Compounds were screened in vitro using purified human 20S proteasome and the fluorogenic peptide substrate, Suc-LLVY-AMC, as the substrate for CT-L activity as described herein.
The mechanism by which quinoline 7 inhibits the proteasome was investigated using Michaelis-Menton analysis to determine of KM and Vmax and then further illustrated using a Lineweaver-Burk double reciprocal plot of the kinetic data. Kinetic analysis of CT-L activity of purified 20S particles indicate that when the substrate (Suc-LLVY-AMC) concentration was increased incrementally and measurements were taken at five different concentrations of compound 7 or vehicle, the Vmax of the CT-L activity decreases and the KM increases, with the increasing concentration of […].

Series [2] is described as follows: Microsome (S9 fraction) stability assay. In kind it is in vitro ADME. The conditions noted are these: mouse S9 fraction 0.25 mg/mL, 3 μM compound, NADPH, LC-MS/MS.
The next series concerns HeLa NF-κB-luc cells. Nature of the series: NF-κB-luc reporter assay, TNF-α stimulated. In kind it is cell-based. The conditions noted are these: Homo sapiens, 30 min pretreatment, TNF-α 25 ng/mL, 8 h, Steady-Glo luciferase, read-out: IC50, NF-κB mediated gene transcription. Here is the method: NF-κB-luc reporter assay: HeLa NF-κB-luc cells (5.0×10^5 cells/mL) were seeded into a 96-well white opaque plate using DMEM medium supplemented with 5% fetal bovine serum, 500 U/mL penicillin, 100 μg/mL streptomycin, 1 mM sodium pyruvate, 0.2 mM L-glutamine, and 100 Ig/mL hygromycin B. After 24 h the cell culture medium was replaced with DMEM medium supplemented with 100 U/mL penicillin and 100 Ig/mL streptomycin. Cell cultures were pretreated with vehicle (1% DMSO), 50 IMpeptide aldehyde MG-132 (positive control) or quinoline (final concentrations were 50, 25, 12.5, 6.25, 3.13 and 1.56 IM) for 30 min at 37° C. in 5% CO2. TNF-α was added to a final concentration of 25 ng/mL and the samples were further incubated for 8 h at 37° C. in 5% CO2. […] The luminescence of each well was measured using a Veritas microplate luminometer. […] The data was analyzed using GraphPad Prism 4.0. The data was normalized to TNF-α activation and the EC50 values were calculated using the equation for the sigmodial curve for variable slope.
In order to evaluate whether the inhibition of proteasome activity translated in cell culture, we evaluated compound 7 for inhibition of NE-KB regulation. […] In order to determine if quinoline 7 affects NE-KB mediated gene transcription, we evaluated quinoline 7 in HeLa NE-KB-luc cells. […]
For orientation: A reporter such as luciferase makes a cellular process visible.

In series [3] the target is purified human 20S proteasome (casp-L activity) (Homo sapiens, UniProt P28072). Nature of the series: Proteasomal casp-L activity measurement with Z-LLE-AMC. In kind it is biochemical. As to conditions: Z-LLE-AMC substrate. Here is the method: as §1
Quinoline 7 was subsequently evaluated for its inhibition of the proteasome's tryptic (b2)-like and caspase (b1)-like activity in vitro using purified human 20S proteasome and the following fluorogenic peptide as substrates: Boc-LRR-AMC (substrate for T-L activity) and Z-LLE-AMC (substrate for casp-L activity).

The nature of a further series: Kinetic solubility assay. Type of series: physicochemical. As to conditions: phosphate buffered saline with 1% DMSO, aqueous buffer, kinetic from dmso stock; estimated kinetic solubility, phosphate buffered saline pH 7.4, 1% DMSO, 2 hours at 37° C., absorbance 620 nm. Here is the method:
Seven three-fold dilutions from 300 μM were prepared in phosphate buffered saline (ph=7.4) and 1% DMSO. Each concentration for each compound was tested three times (n=3). The compounds were incubated for 2 hours at 37° C. and the absorbance at 620 nm was evaluated for each dilution.

pIC50: −log10 of the molar value. Values after ≈ are worked out from the molar mass of the structure shown.

By pIC50 is commonly meant the IC50 on a negative log10 scale, so that one unit is a factor of ten. The molecule `Cc1cc(C)c2cc(-c3ccccc3)cnc2c1` [Compound 4, 5,7-Dimethyl-3-phenylquinoline] showed a negative logarithm of the IC50 (pIC50) in series [1] of 4.63. Same read-out and setting: under `Cc1ccc2nc(C)c(-c3ccccc3)cc2c1` [Compound 5, 2,6-Dimethyl-3-phenylquinoline] stands 4.72; under `Cc1cc(C)c2cc(-c3ccccc3)c(C)nc2c1` [Compound 6, 2,5,7-trimethyl-3-phenylquinoline], 4.82. The solubility is the concentration that dissolves in the medium under given conditions. Consider `Cc1cc(C)c2cc(C3=CCCCC3)c(C)nc2c1` [Compound 7, 3-cyclohexenyl-2,5,7-trimethylquinoline], for which the “Compound remaining after 30 min in mouse S9” value (from here on “Compound remaining”) in series [2] is given as 18%. In addition, the negative-log IC50 (pIC50) with HeLa NF-κB-luc cells was 4.92; in series [3] it was 4.75; in series [1], 4.84. Also, the solubility at 2 h in the series “Kinetic solubility assay” is 38.1 µM (≈ 9.58 µg/mL). Besides, the “Mechanism of inhibition (Michaelis-Menton / Lineweaver-Burk analysis)” value in series [1] (Suc-LLVY-AMC varied, five concentrations of compound, Vmax decreases, KM increases) is “mixed-type inhibition”.

For `CCc1nc2cc(C)cc(C)c2cc1C1=CCCCC1` [Compound 8, 2-Ethyl-3-cyclohexenyl-5,7-dimethylquinoline], the negative logarithm of the IC50 (pIC50) in series [1] was 4.70.

In series [1], `Cc1cc(C)c2cc(C3=CCCCC3)cnc2c1` [Compound 9, 3-Cyclohexenyl-5,7-dimethylquinoline] had a negative logarithm of the IC50 (pIC50) of 4.86. On to `Cc1cc(C)c2cc(C3CCCCC3)c(C)nc2c1` [Compound 11], for which the “Compound remaining” value in series [2] is on record as 100%. Besides, the solubility at 2 h in the series “Kinetic solubility assay” was 129 µM (≈ 32.6 µg/mL). For the same molecule, the negative-log IC50 (pIC50) in series [1] was 5.09. In series [1], `Cc1nc2ccc(Br)cc2cc1C1=CCCCC1` [Compound 16, 6-Bromo-3-cyclohexenyl-2-methylquinoline] had a pIC50 of 5.00. The same measure, in the same setting: under `Cc1ccc2nc(C)c(C3=CCCCC3)cc2c1` [Compound 19, 3-Cyclohexenyl-2,6-dimethylquinoline] stands 5.07. In the case of `CCCCc1ccc2nc(C)c(C3=CCCCC3)cc2c1` [Compound 20, 6-Butyl-3-cyclohexenyl-2-methylquinoline], in series [2], the “Compound remaining” value is 12%. Moreover, the solubility at 2 h in the series “Kinetic solubility assay” was 14.5 µM (≈ 4.05 µg/mL). In series [1], this molecule had a negative-log IC50 (pIC50) of 5.12. In series [1], `CN(C)c1ccc2ncc(C3=CCCCC3)cc2c1` [Compound 21, 3-Cyclohexenyl-6-(N,N-dimethylamino)quinoline] gave a pIC50 of 5.20. Still for that read-out and setting: under `Cc1nc2ccc(N(C)C)cc2cc1C1=CCCCC1` [Compound 22, 3-Cyclohexenyl-2-methyl-6-(N,N-dimethylamino) quinoline] stands 5.21.

In the case of `CCc1nc2ccc(N(C)C)cc2cc1C1=CCCCC1` [Compound 23, 3-Cyclohexenyl-2-ethyl-6(N,N-dimethylamino)quinoline], the “Compound remaining” value in series [2] stood at 5%. Besides, in “Kinetic solubility assay”, the solubility at 2 h is 27.4 µM (≈ 7.68 µg/mL). The molecule further gave a pIC50 in series [1] of 5.25. `Cc1nc2ccc(N3CCCCC3)cc2cc1C1=CCCCC1` [Compound 25, 3-Cyclohexenyl-2-methyl-6-piperidinylquinoline] showed a negative logarithm of the IC50 (pIC50) in series [1] of 5.27. Take `COc1cc2nc(C)c(C3=CCCCC3)cc2c(OC)c1OC` [Compound 27, 3-Cyclohexenyl-5,6,7-trimethoxy-2-methylquinoline]: the pIC50 in series [1] was 4.81. Turning to `CN(C)c1ccc2ncc(C3CCCCC3)cc2c1` [Compound 28, 3-Cyclohexyl-6-(N,N-dimethylamino)quinoline], the pIC50 in series [1] is 5.26. Take `Cc1nc2ccc(N(C)C)cc2cc1C1CCCCC1` [Compound 29, 3-Cyclohexyl-2-methyl-6-(N,N-dimethylamino) quinoline]: in series [2], the “Compound remaining” value is on record as 4%. In the series “Kinetic solubility assay”, the solubility at 2 h was 138 µM (≈ 37.1 µg/mL). The molecule further showed a negative-log IC50 (pIC50) in series [1] of 5.17. On to `Cc1nc2ccc(C(C)C)cc2cc1C1=CCCCC1` [Compound 30, 3-Cyclohexenyl-6-isopropyl-2-methylquinoline], for which the “Compound remaining” value in series [2] stood at 6%. In addition, the solubility at 2 h in “Kinetic solubility assay” is 11.7 µM (≈ 3.11 µg/mL). The molecule further had a negative logarithm of the IC50 (pIC50) in series [1] of 5.11. For the molecule `CCc1cc2cc(N(C)C)ccc2nc1CC` [Compound 33, 2,3-Diethyl-N,N-dimethylquinoline], in series [1], the negative logarithm of the IC50 (pIC50) is 4.73. Take `Cc1nc2ccc(N(C)C)cc2cc1-c1ccccc1` [Compound 34, 2-methyl-3-phenyl-6-(N,N-dimethylamino) quinoline]: in series [2], the “Compound remaining” value is above 100%. For the same molecule, the solubility at 2 h in the series “Kinetic solubility assay” is 121 µM (≈ 31.9 µg/mL). Besides, in series [1], the negative logarithm of the IC50 (pIC50) is 5.00. Turning to `CCCCc1ccc2nc(C)c(-c3ccccc3)cc2c1` [Compound 36, 6-Butyl-2-methyl-3-phenylquinoline], the pIC50 in series [1] was 4.67.

(Values after patent US12084421B2, “Quinoline-based proteasome inhibitors and uses thereof” (Board of Trustees of Michigan State University, priority 2017, dated 2024).)
